Converted amounts (≈) assume the structure as drawn. “And” between values parts separate entries of the source, which are not always exact repeats. Equal entries are not always repeated. Structures can show the parent of a compound that is named as a salt.
What was measured:
[1] = set-up: method as in PMID 14567798, PMID 11841071; details: cited from earlier work
[2] = Distribution coefficient (Log D) in octanol/PBS pH 7.4
[3] = system: human plasma protein; set-up: method as in PMID 14567798, PMID 11841071; details: cited from earlier work
[4] = in vitro; details: human
Experimental: The binding of compound to human plasma was determined using equilibrium dialysis with 6-hour incubation with constant shaking at 37°C as per the method described by Kaplita and Liu.[4] The initial concentration of the compound used was 10 μM (DMSO ≤1%). Quantitations were done by HPLC.

[5] = system: Leishmania donovani; details: cited from earlier work
[6] = system: rat liver microsomes; test: Metabolism by liver microsomal enzymes; type: in vitro ADME; details: rat liver microsomes 0.5 mg protein/ml, 10 μM, 1 hour, 37°C, NADPH regeneration system; ± SEM
Experimental: Ethical clearance was obtained from Animal Ethics Committee of Indian Institute of Chemical Biology for use of animals for the present study. […] The % stability (% compound remaining after metabolism) was calculated as follows:
(3) % Compound remaining=100×(peak area of 1 hour sampl/peak area of 0 hour sample)
For 0 hour sample, the compound was added after addition of ice-cold acetonitrile and then vortexed, followed by centrifugation as mentioned above.

[7] = Parallel artificial membrane permeability assay (PAMPA); type: in vitro ADME
Experimental: Millipore acceptor and donor plate (Cat No: MAPB310 and MASSACCEPTOR) were used in the study. […] Incubation was carried out for 16 hours at room temperature in a water-saturated chamber to avoid evaporation from donor wells. […] To a 200 μl acceptor sample, a 100 μl donor solution was added, mixed properly, and this mixture was termed as “equilibrium.” The absorbance of the equilibrium was also determined. Five standard compounds of different permeability (high: […] (1) Calculation: […] where C = (VD × VA)/[(VD + VA)× Area (cm^2) × porosity × time (seconds)] Where VD = volume of donor (ml), VA = volume of acceptor (ml). A linear graph was plotted with observed and reported values for the standard drugs. The experimental method was considered valid for permeability ranking if linear correlation coefficient (R^2) was more than 0.95.

[8] = Solubility in PBS pH 7.4; details: for solubility at 2 h: 25 °C, pH 7.4, aqueous buffer, kinetic from dmso stock
Experimental: A 4 μl of 25 mM stock (DMSO) of S-4 was diluted to 200 μl with PBS (pH 7.4) and incubated at 25°C for 2 hours with constant shaking. The undissolved compound, if any, was filtered through the PVDF membrane filter (Millipore, MA). To 120 μl of the filtrate, 80 μl of acetonitrile was added and mixed thoroughly. The concentration of S-4 in the filtrate was determined spectrophotometrically from linearity (5-400μM) of the compound prepared in PBS containing 40% acetonitrile. The observed solubility result was multiplied by 200/120 to account for the acetonitrile addition in the test filtrate.

[9] = set-up: method as in ref 11 = [11]; PMID 11937327; doi:10.1016/s0968-0896(02)00046-9; 11 Sahu NP Pal C Mandal NB Banerjee S Raha M Kundu AP Synthesis of a novel quinoline derivative, 2-(2-Methylquinolin-4ylamino)-N-phenylacetamide: A potential antileishmanial agent Bioorg Med Chem 2002; details: cited from earlier work
[10] = system: Leishmania donovani; set-up: method as in ref 11, 12 = [11]; PMID 11937327; doi:10.1016/s0968-0896(02)00046-9; 11 Sahu NP Pal C Mandal NB Banerjee S Raha M Kundu AP Synthesis of a novel quinoline derivative, 2-(2-Methylquinolin-4ylamino)-N-phenylacetamide: A potential antileishmanial agent Bioorg Med Chem 2002 || [12]; 12 Sahu NP Mondal NB Banerjee S Raha R Chakraborti G Basu A Indian patent No. 191818 2004; details: cited from earlier work
[11] = Chemical stability in PBS pH 7.4, simulated gastric fluid and simulated intestinal fluid; type: physicochemical
Experimental: A 100-μM solution of S-4 was prepared in phosphate buffered saline (PBS), pH 7.4, from a stock of 25 mM in DMSO and was kept at 25°C for 24 hours. Percentage stability was determined based on chromatographic peak area of the sample kept for 24 hours and that of 0 hour (freshly prepared and injected) sample. All the samples were prepared in triplicate.
Similar studies were carried out at 37°C replacing PBS with simulated gastric fluid (SGF) and simulated intestinal fluid (SIF) which were prepared following United States Pharmacopoeia, and stability was checked for upto 2 hours for SGF and 4 hours for SIF.

[12] = Distribution coefficient Log D in cyclohexane/PBS pH 7.4; type: physicochemical; details: PBS pH 7.4, average of three experiments
Experimental: Log D in cyclohexane/PBS was performed following the similar method as done for Log D in octanol/PBS. Here, 5 mM compound stock was used to prevent precipitation problem with this system and volumes of cyclohexane were 150, 200, 400, and 800 μl.

[13] = set-up: method as in PMID 14567798, PMID 11841071; details: PBS pH 7.4; cited from earlier work
[14] = PAMPA standards; cited from earlier work
[15] = cited from earlier work
[16] = simulated gastric fluid (SGF), 37°C, 2 hours
[17] = simulated intestinal fluid (SIF), 37°C, 4 hours

In the case of `COCCc1ccc(OCC(O)CNC(C)C)cc1` (centres unmarked) [Metoprolol tartrate], the “Log D octanol/PBS, reported value” [1] is given as −0.30 and the logD [2] is given as -0.25.

In the case of `CNC(=C[N+](=O)[O-])NCCSCc1ccc(CN(C)C)o1` [Ranitidine HCl], the “Percentage of plasma protein binding, reported value” (“Percentage of plasma protein binding” below) [3] is listed as 10-19% and the fraction unbound at 6 h, 10 μM ([4]; plasma) is listed as 0.852.

In the case of `O=C(Nc1ccccc1Cc1nc2ccccc2cc1-c1c[nH]c2ccccc12)C(Cl)Cl` [2-(2′′-dichloroacetamidobenzyl)-3-(3′-indoyl)-quinoline], the Antileishmanial activity [5] is given as “significant antileishmanial activity”.

With `Cc1cc(NCC(=O)Nc2ccccc2)c2ccccc2n1` [S-4, 2-(2-methylquinolin-4-ylamino)-N-phenylacetamide] the “% Parent compound remaining, result” value [6] was 36.07% and 36.07 ± 4.15%, the Papp at 16 h, 250 μM ([7]; PBS pH 7.4 (5% DMSO), 16 hours, room temperature, ± SEM, read-out: Log Pe (converted)) was 2.95 ×10⁻⁶ cm/s and the Permeability ranking ([7]; ranking against standard drugs) was “medium”. For the same molecule, the logD [2] was 0.54, the solubility at 2 h ([8]; PBS) was 300 ± 6.42 µM (≈ 87.3 µg/mL) and the “Toxicity to different organs” value [9] was “no alarming sign to different organs tested”. For the same molecule, the “Reduction of parasite burden in spleen and liver compared with sodium antimony gluconate” value [10] was “significantly more effective than sodium antimony gluconate”, the “Stability (% remaining)” value ([11]; 100 μM in PBS pH 7.4, 25°C, 24 hours, HPLC) was 99.16 ± 1.32% and the remaining at 24 h, 100 μM ([11]; phosphate buffered saline, pH 7.4, 100 μM in PBS pH 7.4, 25°C, 24 hours, HPLC) was greater than 95%. The “Stability (% remaining)” value [11, 16] was 101.19± 0.76%, the remaining at 2 h, 100 μM [11, 16] was greater than 95% and the “Stability (% remaining)” value [11, 17] was 97.70 ± 0.15%. The remaining at 4 h, 100 μM [11, 17] was greater than 95%, the logD hydrocarbon water ([12]; cyclohexane/PBS) was -1.33 and the fraction unbound at 6 h, 10 μM [4] was 0.212.

In the case of `O=C(O)Cc1ccccc1Nc1c(Cl)cccc1Cl` [Diclofenac Sodium], the “Solubility, reported value” [13] is given as greater than 400 µM and the solubility at 2 h [8] is given as greater than 400 µM.

In the case of `Cn1c(=O)c2c(ncn2C)n(C)c1=O` [Caffeine], the “Percentage of plasma protein binding” value [3] is listed as 29-43% and the fraction unbound at 6 h, 10 μM [4] is listed as 0.593.

For `CC(C)NCC(O)COc1cccc2ccccc12.Cl` (centres unmarked) [Propranolol HCl], the “Percentage of plasma protein binding” value [3] is given as 80-93% and the “Permeability ranking of standard compounds” value [14] is given as “high”.

In the case of `CC/C(=C(/CC)c1ccc(O)cc1)c1ccc(O)cc1` [Diethylstilbesterol], the “Solubility, reported value” [13] is given as 5 to 20 µM and the Solubility ([8]; pH 7.4) is given as 18.94 ± 1.00 µM (≈ 5.08 µg/mL).

For `CN(Cc1cnc2nc(N)nc(N)c2n1)c1ccc(C(=O)N[C@@H](CCC(=O)O)C(=O)O)cc1` [Methotrexate], the “Percentage of plasma protein binding” value [3] is listed as 35-57%, the “Permeability ranking of standard compounds” value [14] is listed as “very low” and the fraction unbound at 6 h, 10 μM [4] is listed as 0.493.

For `CC(=O)CC(c1ccccc1)c1c(O)c2ccccc2oc1=O` (centres unmarked) [Warfarin], the “Percentage of plasma protein binding” value [3] is given as 99%, the “Permeability ranking of standard compounds” value [14] is given as “medium” and the “Log D cyclohexane/PBS, reported value” [15] is given as −1.31. It also gave a logD hydrocarbon water [12] of -1.28 and a fraction unbound at 6 h, 10 μM ([4]; plasma) of 0.0179.

In the case of `NC(=O)N1c2ccccc2C=Cc2ccccc21` [carbamazepine], the “Permeability ranking of standard compounds” value [14] is given as “high”.

In the case of `O=C(CCCN1CCC(O)(c2ccc(Cl)cc2)CC1)c1ccc(F)cc1` [Haloperidol], the “Solubility, reported value” [13] is listed as 40 to 63 µM, the solubility at 2 h [8] is listed as 48.5 ± 3.21 µM (≈ 18.2 µg/mL) and the “Log D cyclohexane/PBS, reported value” [15] is listed as 0.46. For the same molecule, the logD hydrocarbon water ([12]; cyclohexane/PBS) was 0.52.

— paper PMC2875737, “Determination of drug-like properties of a novel antileishmanial compound: In vitro absorption, distribution, metabolism, and excretion studies” (Indian Journal of Pharmacology, 2009)
